Where “and” joins values, the source holds several entries; their conditions need not be identical. Identical values can stand only once. Inconclusive results are not listed. Calls of active or inactive are those of the source.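 Rule for the calls: active = fitted half-maximal concentration of signal decrease at or below twice the sample's top tested concentration; inconclusive = flat curve between -70 and -30 percent, or poor fit; inactive = flat within 30 percent, signal rise, or potency above limit.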
biological target: T. gondii ME49Luc in IFN-y HeLa, luciferase, 72 h; assay: inhibitors of Toxoplasma growth in IFN-γ-primed HeLa – cell-based, ME49Luc, luciferase, 72 h, dose response (AID 1259418)

Compound	AC50
CCc1c(C)sc2c1CCN(Cc1nc(-c3cc(C)ccc3C)oc1C)C2c1ccccc1 (stereo unspecified)	9.45 µM
CCc1cnc(N2[C@H](C#N)[C@H](c3ccc(-c4cccc(F)c4)cc3)[C@H]2CO)s1	21.3 µM
O=C(C[C@H]1CC[C@H]2[C@@H](COC[C@@H](O)CN2Cc2cc(F)ccc2F)O1)NCc1ccc(Oc2ccccc2)cc1	27.3 µM
COc1ccc(OCC(=O)N2CCC3(CC2)Nc2cc(OC)ccc2-n2cccc23)cc1	38.3 µM
O=C(Cc1ccncc1)N1CCCCN2[C@H](CO)[C@H](c3ccc(C#Cc4ccccc4F)cc3)[C@H]2C1	20 µM
COc1cccc(-c2ccc([C@H]3[C@H]4CN(C(=O)Cc5ccncc5)CCCCN4[C@H]3CO)cc2)c1	> 39 µM (inactive)
O=C1c2cccc(O)c2C(=O)c2c(O)cc(CO)cc21	16.6 µM
COc1ccc(CN2C[C@@H]3C[C@H](C(=O)Nc4ccccc4)[C@@H](C2)O3)cc1	> 39 µM (inactive)
CCc1ccc(S(=O)(=O)N2CCC[C@@H]2C(=O)NCCc2csc(-c3ccccc3)n2)cc1	21.8 µM
O=C(NCc1ccc(F)cc1F)c1cc(-c2cnc(N3CCCC3)nc2)cn1CC1CC1	13.2 µM
Cc1ccccc1Cn1c(CN2CCC(C(=O)N3CCCC3)CC2)cc2ccccc21	> 39 µM (inactive)
C[C@@H]1CN([C@H](C)CO)C(=O)Cc2cc(NC(=O)C3CCCCC3)ccc2O[C@H]1CN(C)Cc1ccc(Cl)c(Cl)c1	17.4 µM
COc1ccc(-c2nc(NCCc3ccc(OC)c(OC)c3)c3ccccc3n2)cc1	17.4 µM
Cc1ccc(S(=O)(=O)N2CCC3(CC2)NCCN=C3NC2CCCCCC2)c(C)c1	14.2 µM
O=C(NC1CCCC1)N1CC(=O)N2[C@H](CO)[C@H](c3ccc(C4=CCCCC4)cc3)[C@@H]2C1	35.3 µM
O=C(CCCCCn1c(=S)[nH]c2ccccc2c1=O)N1CCC(O)(c2cccc(C(F)(F)F)c2)CC1	26.9 µM
CCc1ccc(S(=O)(=O)N2CCC3(CC2)NCCN=C3NCc2ccccc2)cc1	21.8 µM
COc1ccc(-c2nc(N(Cc3ccco3)CC3CCCO3)c3ccccc3n2)cc1 (stereo unspecified)	31.8 µM
COc1ccccc1N(Cc1nc(-c2ccc(C)cc2)oc1C)S(=O)(=O)c1ccc(C)cc1	10.3 µM
Cc1csc(-c2cc(S(=O)(=O)NCCCN3CCC(C)CC3)c(C)s2)n1	> 39 µM (inactive)
CC(C)C#Cc1ccc([C@H]2[C@@H](CO)N3C(=O)CN(S(=O)(=O)c4ccccc4)C[C@H]23)cc1	13.6 µM
Cc1ccc(S(=O)(=O)N2CCC3(CC2)NCCN=C3NCc2ccc(F)c(Cl)c2)cc1C	16.5 µM
O=C(Cc1cccnc1)N1CC(=O)N2[C@H](C1)[C@@H](c1ccc(/C=C/c3ccccc3)cc1)[C@@H]2CO	19.8 µM

Compound	AC50
O=C(Nc1ccc(F)cc1)N1CC(=O)N2[C@H](C1)[C@@H](c1ccc(-c3cccc(F)c3)cc1)[C@@H]2CO	8.5 µM and 5.04 µM
COc1ccc(S(=O)(=O)N2CCC(C(=O)NCCc3csc(-c4ccccc4)n3)CC2)cc1	> 20 µM (inactive)
COc1ccc2c(c1)NC1(CCN(C(=O)c3ccc(F)cc3)CC1)c1cccn1-2	> 20 µM (inactive)
CCOc1ccccc1-c1nc(CN(c2cccc(OC)c2)S(=O)(=O)c2ccc(C)cc2)c(C)o1	9.59 µM
N#Cc1cccc(-c2ccc3c(c2)[C@@H]2[C@@H](CCN2S(=O)(=O)c2ccc(F)cc2)[C@H](CO)N3)c1	17.8 µM
COc1cccc(S(=O)(=O)N2CCCCN3[C@H](CO)[C@@H](c4ccc(C#CCC(C)C)cc4)[C@H]3C2)c1	24.9 µM and 10.3 µM and 9.5 µM
Cc1ccc(-c2cc(O)c3c(c2)CN(C(=O)CCN2CCCO2)CCO3)s1	13.5 µM
Cc1ccccc1-c1ccc(C2[C@@H]3CN(C(=O)c4ccc(F)cc4)C[C@H]2N3)cc1 (stereo partly specified)	19 µM
Cc1ccc(-c2coc(-c3ccc(NC(=O)c4cccs4)cc3)n2)c(C)c1	13.8 µM
CCc1cnc(N2[C@@H](C#N)[C@@H](c3ccc(C4=CCCCC4)cc3)[C@@H]2CO)s1	> 20 µM (inactive) and 8.88 µM
Cc1ccc(CNC2=NCCNC23CCN(S(=O)(=O)c2ccc4c(c2)CCCC4)CC3)cc1	19.4 µM
CN(C)C(=O)c1ccc(-c2ccc3c(c2)[C@H]2[C@H](CCN2C(=O)C2CCCC2)[C@@H](CO)N3C)cc1	18.8 µM
Cc1ccc(S(=O)(=O)N2CSC[C@@H]2C(=O)NCCc2csc(-c3ccccc3)n2)cc1	12.9 µM
Fc1ccccc1CSc1nc(Nc2ccc3c(c2)OCO3)c2ccccc2n1	33.2 µM
CCc1nc(OCC(=O)N(C)c2ccccc2)c2ccccc2n1	24.4 µM
N#C[C@@H]1[C@H](c2ccc(-c3cccc(F)c3)cc2)[C@H](CO)N1C(=O)NC1CCCC1	15.1 µM and 4.56 µM
CCc1ccc(N2CCC(C(=O)NCCc3c[nH]c4ccc(C)cc34)C2=O)cc1 (stereo unspecified)	22.9 µM
COc1ccc(CC(=O)Nc2ccc3c(c2)CCC(=O)N3C)c(Cl)c1	21.2 µM
CCCNC(=O)[C@H]1[C@H](CO)[C@H]2Cn3c(ccc(C4=CCCCC4)c3=O)[C@H]2N1Cc1ccccc1F	8.99 µM
CCN(CC)CCO[C@H]1CC[C@@]2(C)C(=CC[C@@H]3[C@@H]2CC[C@]2(C)C(=O)CC[C@@H]32)C1	12 µM
COc1ccccc1NS(=O)(=O)c1cc2c3c(c1)CCC(=O)N3CCC2	25.4 µM
O=C(CC1Nc2c3ccccc3nc(=S)n2C1=O)NCc1ccc2c(c1)OCO2 (stereo unspecified)	> 39 µM (inactive)
Clc1ccc(CNc2nc(SCc3cccc(Cl)c3)nc3ccccc23)cc1	5.24 µM

Compound	AC50
Cc1ccc(S(=O)(=O)N2CCC3(CC2)NCCN=C3NCc2ccc(F)c(Cl)c2)c(C)c1	6.21 µM
COc1ccc(N(Cc2nc(-c3ccc(C)cc3)oc2C)S(=O)(=O)c2ccccc2)cc1	15.2 µM
COc1ccccc1NC(=O)N1CCCCN2[C@H](C1)[C@@H](c1ccc(-c3cccc(C#N)c3)cc1)[C@@H]2CO	21.1 µM
COc1cccc(NC(=O)N2CC(=O)N3[C@H](C2)[C@H](c2ccc(C#CCC4CCCC4)cc2)[C@@H]3CO)c1	14.2 µM and 9.85 µM
CC(C)CNC(=O)c1cc(-c2ccn(CC3CC3)n2)n2ccccc12	13.3 µM
CCCNC(=O)c1cc(-c2cnc(NCc3ccccc3)nc2)cn1C	7.07 µM and 17.3 µM
COCC(=O)N1[C@H](C#N)[C@H](c2ccc(C#CCC3CCCC3)cc2)[C@@H]1CO	29.6 µM and 27.8 µM
COc1cccc(NC(=O)N2CC(=O)N3[C@@H](CO)[C@@H](c4ccc(C#CCC5CCCC5)cc4)[C@@H]3C2)c1	22.5 µM
CC(C)n1cnc2c(NCC3CC3)nc(C3CCN(C(=O)c4ccccc4)CC3)cc21	21.7 µM
Cc1ccc(N(Cc2nc(-c3ccccc3)oc2C)S(=O)(=O)c2cccs2)cc1	3.53 µM
O=C1CNC[C@H]2[C@@H](c3ccc(C#Cc4cccnc4)cc3)[C@@H](CO)N12	26.8 µM
COc1cc(NC(=O)Nc2ccc(-c3nc(-c4ccc(C)cc4C)co3)cc2)cc(OC)c1	25.7 µM
O=S1(=O)c2ccccc2O[C@H]2CCN(Cc3ccc(Cl)cc3)CC[C@H]2N1CC1CC1	32 µM
O=C(Nc1ccc(F)cc1)N1C[C@@H]2N[C@H](C1)C2c1ccc(/C=C/c2ccccc2)cc1 (stereo partly specified)	10.3 µM and 2.14 µM
COc1cccc(S(=O)(=O)N2CCCCN3[C@H](C2)[C@H](c2ccc(C#CCC(C)C)cc2)[C@@H]3CO)c1	9.96 µM and 8.54 µM
COc1cccc(-c2nc3c(s2)CN(C(=O)Nc2ccc(Cl)cc2)CC3)c1	> 20 µM (inactive)
CCOc1ccc(-c2nc(CN(c3ccccc3OC)S(=O)(=O)c3cccs3)c(C)o2)cc1	8.23 µM
Cc1cc(C)c(S(=O)(=O)N2CCC(C(=O)NCCc3csc(-c4ccccc4)n3)CC2)cc1C	14.7 µM
COc1ccc(-c2nc(NC3CCN(Cc4ccccc4)CC3)c3ccccc3n2)cc1	26.3 µM
COc1cccc(-c2ccc3c(c2)[C@H]2[C@H](CCN2S(=O)(=O)c2ccccc2F)[C@@H](CO)N3)c1	25 µM and 6.64 µM
O=C(Cc1ccncc1)N1CCCCN2[C@H](CO)[C@H](c3ccc(C#Cc4ccccc4F)cc3)[C@@H]2C1	8.53 µM
O=C(NCCCN1CCCC1)C1CCN(Cc2cc3ccccc3n2Cc2ccccc2Cl)CC1	25.8 µM
COc1ccccc1-c1nc(Cn2nnc(-c3nc(-c4ccc(C)cc4)no3)c2C)c(C)o1	> 20 µM (inactive)

Compound	AC50
O=C(c1ccc(F)cc1)N1CC(=O)N2[C@H](C1)[C@H](c1ccc(C#CCC3CCCC3)cc1)[C@@H]2CO	10.6 µM
c1ccc(-c2noc(-c3ccc(N4CCC(N5CCCCC5)CC4)nc3)n2)cc1	18.6 µM
CC(C)(Cc1ccc2ccccc2c1)NC[C@@H](O)COc1cccc(Cl)c1C#N	13.3 µM
CC(C)Cc1ccc(S(=O)(=O)N2CCC3(CC2)NCCN=C3NC2CCCCC2)cc1	25.6 µM
O=S(=O)(c1cccs1)N1CCCCN2[C@H](CO)[C@@H](c3ccc(/C=C/c4ccccc4)cc3)[C@@H]2C1	22 µM
Cc1ccc(CCNc2nc(-c3ccc(Cl)cc3)nc3ccccc23)cc1	22.7 µM
Cn1ncnc1[C@H]1c2n[nH]c(=O)c3cc(F)cc(c23)N[C@@H]1c1ccc(F)cc1	38.6 µM
Cc1cccc(-c2ccc([C@@H]3[C@H](CO)N4CCCCN(S(=O)(=O)c5ccccc5F)C[C@@H]34)cc2)c1	16.6 µM and 10.7 µM
COCCN(C)C(=O)c1cc(-c2ccn(-c3ccc(OC)cc3)n2)n2ccccc12	22.3 µM
O=C(NCCc1csc(-c2ccccc2)n1)C1CCN(C(=O)c2ccccc2Br)CC1	24.6 µM
COc1ccc(CNC2=NCCNC23CCN(S(=O)(=O)c2ccc(C)cc2C)CC3)cc1	18.6 µM
O=C(Cc1cccnc1)N1CC(=O)N2[C@H](CO)[C@@H](c3ccc(/C=C/c4ccccc4)cc3)[C@@H]2C1	19.3 µM
Cc1ccc(S(=O)(=O)N2CCC3(CC2)NCCN=C3NCc2ccc3c(c2)OCO3)cc1C	22.4 µM
COc1cccc(-c2nc(C)c(-c3ccc(SCc4ccc(F)cc4)nn3)s2)c1	6.5 µM
CCOc1ccc(-c2nc(CN(c3ccccc3)S(=O)(=O)c3cccs3)c(C)o2)cc1	15.2 µM
COc1ccccc1N(Cc1nc(-c2ccc(C)cc2)oc1C)S(=O)(=O)c1ccccc1C	15.1 µM
CCOc1ccc(-c2nc(CN(c3ccc(OC)cc3)S(=O)(=O)c3cccs3)c(C)o2)cc1	8.01 µM and 17.4 µM
COc1ccc(-c2nc(NC3CC3)c3ccccc3n2)cc1	14.9 µM
O=C(Cc1cccnc1)N1CC(=O)N2[C@H](CO)[C@@H](c3ccc(C4=CCCCC4)cc3)[C@H]2C1	25.3 µM
Cn1cnc(S(=O)(=O)N2CCCCN3[C@H](CO)[C@H](c4ccc(C5=CCCCC5)cc4)[C@@H]3C2)c1	18.4 µM and 20.2 µM
O=S(=O)(c1ccc(Cl)s1)N1CCC2(CC1)NCCN=C2NCc1ccccc1F	17.9 µM
O=C(NCCc1csc(-c2ccccc2)n1)C1CCN(S(=O)(=O)c2ccc(Cl)cc2)CC1	14.6 µM

Reference: PubChem BioAssay AID1259418 (Broad Institute, 2018)
